The values below come from article PMC7614687, “Modulation of the substrate specificity of the kinase PDK1 by distinct conformations of the full-length protein*” (Science signaling, 2023).

The test system of data set [1] is PDK1. On the set-up: method as in PMID 20051961. Conditions: read-out: IC50, in vitro inhibitor of PDK1; cited from earlier work.
The target of data set [2] is T1, PDK1 (Homo sapiens, UniProt O15530).
T1 sequence (O15530 1-556): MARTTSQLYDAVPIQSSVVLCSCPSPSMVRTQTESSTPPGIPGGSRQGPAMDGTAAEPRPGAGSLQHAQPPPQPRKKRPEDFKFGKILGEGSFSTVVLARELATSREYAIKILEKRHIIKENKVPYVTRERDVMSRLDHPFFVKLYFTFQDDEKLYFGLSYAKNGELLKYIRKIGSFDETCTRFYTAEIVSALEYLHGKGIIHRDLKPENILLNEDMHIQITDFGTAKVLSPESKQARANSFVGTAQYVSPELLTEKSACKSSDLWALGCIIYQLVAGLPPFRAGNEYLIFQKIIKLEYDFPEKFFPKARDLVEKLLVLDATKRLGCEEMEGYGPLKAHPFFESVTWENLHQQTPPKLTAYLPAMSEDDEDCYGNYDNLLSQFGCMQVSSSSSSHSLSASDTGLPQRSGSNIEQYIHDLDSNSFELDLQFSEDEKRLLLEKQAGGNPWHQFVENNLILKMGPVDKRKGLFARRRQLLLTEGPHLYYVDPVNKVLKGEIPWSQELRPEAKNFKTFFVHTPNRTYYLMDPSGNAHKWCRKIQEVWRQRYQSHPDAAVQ
The data set is described as follows: Thermo Fisher "PDK1 Direct" assay (peptide Ser/Thr 07, FRET readout). Format: biochemical. Conditions: 1 μM.

In data set [3] the target is T2, GST-PDK1_1-556 (Homo sapiens, UniProt O15530).
T2 construct: made in house; host or cells: HEK293 cells (transient transfection of pEBG2T); peptide synthesized by Pepscan
T2 sequence (O15530 1-556): T1 sequence (O15530 1-556)
Nature of the data set: AlphaScreen biotin-PIP3 / GST-PDK1_1-556 displacement. In kind it is binding. The settings on record: PIP3 20 nM, GST-PDK1 3 nM. The method, then: (§1) The AlphaScreen® assay was performed following the general guidelines from the manufacturer (Perkin Elmer) ([29]). In short, the assay was performed in a final volume of 25 μl in white 384-well microtiter plates (Greiner) in a standard buffer containing 50 mM Tris-HCl (pH 7.4), 100 mM NaCl, 2 mM DTT, 0.01% (v/v) Tween-20 and 0.1% (w/v) BSA, with the addition of 5 μl of beads (anti-GST coated acceptor beads and streptavidin-coated donor beads; nickel chelate-coated acceptor beads and streptavidin-coated donor beads; or nickel chelate-coated acceptor beads and GSH-coated donor beads, 20 μg/ml final concentrations for each bead type). AlphaScreen assays for His-tagged proteins and GST-fusion proteins were performed using nickel chelate-coated acceptor beads and GSH-coated donor beads; alphascreen assays for His-tagged proteins and biotinylated molecules were performed using nickel chelate-coated acceptor beads and streptavidin-coated donor beads; alphascreen assays for GST-fusion proteins and biotinylated molecules were performed using anti-GST coated acceptor beads and streptavidin-coated donor beads (Perkin Elmer).
The conditions for each AlphaScreen assay were identified in cross-titration experiments for each interaction to choose the ideal pair of concentrations within the linear range of the interactions. As required, the standard conditions were modified to use less material, to increase binding of the interacting molecules, to lower background signal, and so on. His-PDK1 and GST-fusion protein in the presence or absence of the different compounds were incubated in the dark for 60 min at room temperature and the emission of light from the acceptor beads was measured in an EnVision reader (Perkin Elmer) or Spark plate reader (Tecan). AlphaScreen assays were performed at least twice, although most experiments were performed multiple times by different researchers with different batches of purified proteins with similar results.
(§2) Biotin-PIP3 interactions with GST-PDK1_1-556 or GST-PDK1_360-556 were assessed in the standard buffer. […]

For the next data set, the target named is T3, GST-PDK1_360-556 (Homo sapiens, UniProt O15530).
T3 construct: GST-PDK1_360-556 (GST-PDK1-Linker-PH) was cloned into the BamHI-KpnI sites in pEBG2T plasmid; made in house; host or cells: HEK293 cells (transient transfection of pEBG2T)
T3 sequence (O15530 360-556): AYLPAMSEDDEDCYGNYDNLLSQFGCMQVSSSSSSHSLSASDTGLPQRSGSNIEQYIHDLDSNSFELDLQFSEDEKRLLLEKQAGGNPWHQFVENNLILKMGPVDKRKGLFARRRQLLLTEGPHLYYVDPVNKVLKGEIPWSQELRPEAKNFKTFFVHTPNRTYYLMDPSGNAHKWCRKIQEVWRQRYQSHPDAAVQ
Nature of the data set: AlphaScreen biotin-PIP3 / GST-PDK1_360-556 (linker-PH domain) displacement. Format: binding. Conditions: PIP3 20 nM, GST-PDK1 3 nM. As to the method:
The AlphaScreen® assay was performed following the general guidelines from the manufacturer (Perkin Elmer) ([29]). In short, the assay was performed in a final volume of 25 μl in white 384-well microtiter plates (Greiner) in a standard buffer containing 50 mM Tris-HCl (pH 7.4), 100 mM NaCl, 2 mM DTT, 0.01% (v/v) Tween-20 and 0.1% (w/v) BSA, with the addition of 5 μl of beads (anti-GST coated acceptor beads and streptavidin-coated donor beads; nickel chelate-coated acceptor beads and streptavidin-coated donor beads; or nickel chelate-coated acceptor beads and GSH-coated donor beads, 20 μg/ml final concentrations for each bead type). […]
(§3) The conditions for each AlphaScreen assay were identified in cross-titration experiments for each interaction to choose the ideal pair of concentrations within the linear range of the interactions. […] His-PDK1 and GST-fusion protein in the presence or absence of the different compounds were incubated in the dark for 60 min at room temperature and the emission of light from the acceptor beads was measured in an EnVision reader (Perkin Elmer) or Spark plate reader (Tecan). […]
as §2

The target of another data set is T4, PDK1_1-556 (Homo sapiens, UniProt O15530).
T4 construct: effect of HYG8 on the thermal stability (ΔTm) of PDK1_1-556 (H) and PDK1_50-359 (I); His (N); made in house; host or cells: Sf9 insect cells (baculovirus)
T4 sequence (O15530 1-556): T1 sequence (O15530 1-556)
Nature of the data set: Differential scanning fluorimetry, thermal stability of PDK1_1-556. Format: binding. The settings on record: PDK1 1 μM. The method, then: The thermal stability of PDK1 was assessed by monitoring the unfolding of PDK1 by the increase in the fluorescence of SYPRO Orange (Invitrogen) using a real-time PCR device (StepOnePlus, Applied Biosystems and BioRad CFX96) following a previously described protocol ([70]). The reactions were performed in a final volume of 10 μl in white 96-well PCR microtiter plates (Greiner) and contained 1 μM PDK1, 10 mM HEPES (pH 7.5), 150 mM NaCl, 1/1000 SYPRO Orange and 1 mM dithiothreitol. For valsartan, the assay buffer was modified to exclude NaCl. PIFtide or compounds (at a final DMSO concentration of 1%) were added to this reaction mixture. The temperature gradient was performed in steps of 0.3 °C in the range from 25 to 70 °C. To calculate the Tm values, data were exported to GraphPad Prism and curves fitted to a Boltzmann sigmoidal equation with an acceptable confidence interval of 95%. Statistical analysis was performed with Infostat software (http://www.infostat.com.ar) and GraphPad Prism by first verifying a normal distribution of pooled residuals (Shapiro-Wilks test) and homogeneity of variance (F test), and then performing a one-way ANOVA followed by the post hoc comparisons test indicated in each figure legend.

For data set [4], the target named is T5, His-PDK1_1-556 and GST-PDK1_360-556 (Homo sapiens, UniProt O15530).
T5 construct: made in house; host or cells: Sf9 insect cells (His-PDK1_1-556); HEK293 cells (GST-PDK1_360-556)
T5 sequence (O15530 1-556): T1 sequence (O15530 1-556)
The data set is described as follows: AlphaScreen PDK1 dimerization assay His-PDK1_1-556 / GST-PDK1_360-556. Format: binding. The method, then: as §1, §3

In data set [5] the target is T2, GST-PDK1_1-556. Nature of the data set: AlphaScreen GST-PDK1_1-556 / biotin-PIFtide interaction. Format: binding. As to the method: as §1
The interaction between GST-PDK1_1-556 and biotin-PIFtide was performed as described previously ([29], [32]) in the standard buffer, but the bead concentration was lowered to 15 μg/ml.

Another data set deals with T6, His-PDK1_(1-556) (UniProt O15530 1-556).
T6 construct: also called full-length PDK1; PDK1 FL; source: Sf9 insect cells (Bac-to-Bac baculovirus), purified (Ni-NTA, gel filtration); not shown: His, N-terminal, kept; myc, N-terminal, kept
T6 sequence (looked up): T1 sequence (O15530 1-556)
Nature of the data set: AlphaScreen or HTRF; His-PDK1_(1-556) and GST-PDK1_(360-556); nickel chelate-coated acceptor beads and GSH-coated donor beads; standard buffer 50 mM Tris-HCl pH 7.4, 100 mM NaCl, 2 mM DTT, 0.01% Tween-20, 0.1% BSA; 60 min at room temperature. The settings on record: both partners purified.

In the next data set the target is T7, GST-PDK1_(1-556) (UniProt O15530 1-556).
T7 construct: source: HEK293 cells, transient transfection of pEBG2T plasmid, purified, dialyzed to remove GSH
T7 sequence (looked up): T1 sequence (O15530 1-556)
The data set is described as follows: AlphaScreen or HTRF; GST-PDK1_(1-556) (150 nM) and biotin-GS-022; anti-GST coated acceptor beads and streptavidin-coated donor beads; standard buffer; with or without HYG8. Conditions: both partners purified.

Data set [6] concerns the molecule itself. The data set is described as follows: STORM-based single-molecule fluorescence intensity; TMR-Star-labelled SNAP-PDK1 diluted and adsorbed on PDDA-coated slides; 50 mM Tris-HCl pH 7.4, 100 mM NaCl, 1 mM DTT; dimers told from monomers by spot intensity.

Where two headings read alike, the source gives them in different places. No end group written: not given here. *: point of attachment. Biotin = O=C1N[C@H]2[C@H](CS[C@H]2CCCCC(=O)*)N1

Turning to `O=P(O)(O)OC1C(OCc2ccccc2)C(OP(=O)(O)O)C(OP(=O)(O)O)C(OP(=O)(O)O)C1OP(=O)(O)O` (centres unmarked) [2-O-benzyl-IP5], the half-maximal inhibitory concentration (IC50) in the data set on PDK1 [1] was 26 nM.
Consider `NCCO[C@H]1[C@@H](OP(=O)(O)O)[C@H](OP(=O)(O)O)[C@@H](OP(=O)(O)O)[C@H](OP(=O)(O)O)[C@H]1OP(=O)(O)O` [AMR1474, 2-O-(2-aminoethyl)-IP5], for which the inhibition at 1 µM was 9% on PDK1 [2] (replicate point 1, read-out: % Inhibition Point 1); 11% at PDK1 [2] (replicate point 2, read-out: % Inhibition Point 2); not above 10% at PDK1 [2] (single point, N=2, read-out: Inhibition at 1 μM (%)). Besides, the “displacement of PIP3 from GST-PDK1_1-556” value at GST-PDK1_1-556 [3] is “lacked or showed reduced ability to displace”. Further, the “displacement of PIP3 from GST-PDK1_360-556” value on GST-PDK1_360-556 is recorded as “lacked or showed reduced ability to displace”. In addition, the entries for the “Tm (°C), temperature stabilization of PDK1_1-556” value on PDK1_1-556 (compound 1 µM) and on PDK1_1-556 (compound 20 µM) were 2.9 °C and 6.0 °C, respectively. In addition, the IC50 in data set [4] (absence of PIFtide, read-out: IC50 (nM), displacement of His-PDK1_1-556 interaction with GST-PDK1_360-556) was found to be 458 nM; in data set [4] (with PIFtide, read-out: IC50 (nM), displacement of His-PDK1_1-556 interaction with GST-PDK1_360-556 with PIFtide), 159 nM. In addition, the “effect on PDK1-PIFtide interaction” value at GST-PDK1_1-556 [5] is recorded as “virtually no effect”.

B1: GST-PDK1_(360-556) (domain or fragment, UniProt O15530 360-556, looked up)
chain: T3 sequence (O15530 360-556)
notes: Cloned into the BamHI-KpnI sites of pEBG2T; also called GST-PDK1-Linker-PH; GST-linker-PH domain; source: HEK293 cells, transient transfection of pEBG2T plasmid, purified, dialyzed to remove GSH
As to B1, the binding result with His-PDK1_(1-556) is recorded as “binds”.

B2: biotin-GS-022 (peptide)
peptide: Biotin-RRRQFSLRRKAK
notes: synthetic peptide substrate of PDK1; source: synthetic peptide (Pepscan)
Consider B2, for which the binding result in the data set with GST-PDK1_(1-556) is given as “binds”.

B3: SNAP-PDK1_(50-556) (enzyme, UniProt O15530 50-556, looked up)
chain: AMDGTAAEPRPGAGSLQHAQPPPQPRKKRPEDFKFGKILGEGSFSTVVLARELATSREYAIKILEKRHIIKENKVPYVTRERDVMSRLDHPFFVKLYFTFQDDEKLYFGLSYAKNGELLKYIRKIGSFDETCTRFYTAEIVSALEYLHGKGIIHRDLKPENILLNEDMHIQITDFGTAKVLSPESKQARANSFVGTAQYVSPELLTEKSACKSSDLWALGCIIYQLVAGLPPFRAGNEYLIFQKIIKLEYDFPEKFFPKARDLVEKLLVLDATKRLGCEEMEGYGPLKAHPFFESVTWENLHQQTPPKLTAYLPAMSEDDEDCYGNYDNLLSQFGCMQVSSSSSSHSLSASDTGLPQRSGSNIEQYIHDLDSNSFELDLQFSEDEKRLLLEKQAGGNPWHQFVENNLILKMGPVDKRKGLFARRRQLLLTEGPHLYYVDPVNKVLKGEIPWSQELRPEAKNFKTFFVHTPNRTYYLMDPSGNAHKWCRKIQEVWRQRYQSHPDAAVQ
modifications: SNAP-Cell TMR-Star label on the SNAP-tag
notes: also called TMR-SNAP-PDK1
On to B3, for which, in data set [6], the binding result was “binds”.
